Data as given in patent US5294605A, “Amphiphilic peptide compositions and analogues thereof” (The Scripps Research Institute, priority 1991, dated 1994).
Where two headings read alike, the source gives them in different places. Square brackets hold non-standard residues; d marks the D form. Ends that are not written are not given here. Met(O) = CS(=O)CC[C@H](N)C(=O)O

Assays:
Format in all cases: cell-based
[1] = system: Escherichia coli; conditions: for Min. Inhibitory Concentration E. Coli: LB medium
Procedure: (§1) For the following Examples 3-9, antimicrobial assays were carried out in 96-well tissue culture plates. Each well was incubated with a given microorganism (Escherichia coli, Staphylococcus epidermidis, or Pseudomonas aeruginosa) suspended in LB medium. Upon the addition of the parent peptide having the structural formula hereinabove described, or its substitution analogues, or of Peptide I (dissolved in 1 X PBS, pH 7.0) each well contained a final cell density of 1.0×10^6 colony forming units (CFU)/ml. The final peptide concentrations ranged from 1.5 μg/ml to greater than 100 μg/ml.
(§2) Addition of peptides to the wells was defined as time zero. At twenty hours, the plates were placed in a Titertek Multiskan apparatus and the O.D.620 determined. The plates as well as the initial innoculum were incubated at 37° C.
(§3) Five wells per plate contained media alone, while five others contained medium plus cells. These controls were used to eliminate the possibility of media contamination while providing a measure of uninhibited growth of the microorganisms.
(§4) The degree of peptide activity was determined by comparing the substitution analogues with uninhibited growth of the control cells over a twenty-hour period.
(§5) as hereinabove described and analogues thereof wherein a methionine sulfoxide residue was substituted for various amino acid residues of the parent peptide were prepared as hereinabove described in Example 1 and tested for minimum inhibitory concentration with respect to E. coli, P. aeruginosa, and S. epidermidis at a concentration given in μg/ml, and for percent hemolysis of human red blood cells as hereinabove described in Example 2. The minimum inhibitory concentration and percent hemolysis (at a concentration of 100 μg/ml) are listed below in Table I. As used herein, the heading "Amino Acid Residue Substituted" refers to the number of the amino acid residue in the peptide which is substituted with a desired amino acid residue. All other residues remain the same as that of the normal peptide sequence. The term "Minimum Inhibitory Concentration" (MIC) as used herein indicates the minimum concentration of peptide in μg/ml needed to achieve 100 percent effective growth inhibition of the organism.

[2] = system: Pseudomonas aeruginosa; conditions: for Min. Inhibitory Concentration P. Aeruginosa: LB medium
Procedure: as §1, §2, §3, §4, §5

[3] = system: Staphylococcus epidermidis; test: Antimicrobial assay in 96-well plates, LB medium (Example 2), MIC; conditions: for Min. Inhibitory Concentration S. epidemidia: Table VI, methionine sulfoxide diastereomer fractions
[4] = system: Escherichia coli; test: Antimicrobial assay for deletion analogues (Example 10), MIC; conditions: Table VII; 1.3×10^5 CFU/ml, 20 hours, LB medium
Procedure: (§6) For the deletion analogues of the parent peptide further described in Examples 11 and 12, antimicrobial assays were carried out in 96-well tissue culture plates. Each well was incubated with a given microorganism (Escherichia coli, Staphylococcus epidermidis, Pseudomonas aeruginosa, or Staphylococcus aureus) suspended in LB medium. Upon addition of the parent peptide or its deletion analogues (dissolved in 1×PBS<pH7.0), each well contained a final cell density of 1.3×10^5 colony forming units (CFU)/ml of E. coli, or 3.5×10^5 CFU/ml P.aeruginosa, or 3.9×10^5 CFU/ml S. Aureus or 3.0×10^5 CFU/ml S. epidermidis. The final peptide concentrations ranged from 1.5 μg/ml to greater than 100 μg/ml. Addition of peptide to the wells was defined as time zero. At twenty hours, the plates were placed in a Titertek Multiskan apparatus and the O.D. 620 determined. The plates as well as the initial innoculum were incubated at 37° C. Five wells per plate contained medium alone, whereas five others contained medium plus cells. These controls were used to eliminate the possibility of medium contamination, while providing a measure of uninhibited growth of the microorganisms. The degree of peptide activity was determined by comparing the deletion analogues with uninhibited growth of the control cells over a twenty-hour period. The effective growth inhibitation of the deletion analogues is listed in the examples and tables below.

[5] = system: Staphylococcus aureus; test: as above; conditions: Table VII; 3.9×10^5 CFU/ml, 20 hours, LB medium
Procedure: as §6

[6] = system: Staphylococcus epidermidis; test: as above; conditions: Table VII; 3.0×10^5 CFU/ml, 20 hours, LB medium
Procedure: as §6

[7] = system: Pseudomonas aeruginosa; test: as above; conditions: Table VII; 3.5×10^5 CFU/ml, 20 hours, LB medium
Procedure: as §6

[8] = Table VI, methionine sulfoxide diastereomer fractions, 20 hours
[9] = Table II, lysine substitutions, 20 hours
[10] = Table IV, analogues substituted at residues 4 and 11, 20 hours

Substance	Minimum Inhibitory Concentration E. coli [4] [µg/mL]	Minimum Inhibitory Concentration S. aureus [5] [µg/mL]	Minimum Inhibitory Concentration S. epidermidis [6] [µg/mL]	Minimum Inhibitory Concentration P. Aeruginosa [7] [µg/mL]	also measured
4 (SEQ ID NO: 8) 50/50: residue 4 methionine sulfoxide analogue, fraction by proportion of L-methionine-L-/D-sulfoxide (assignment undetermined) (LKL[Met(O)]KKLLKKLKKLLKKL; also: sulfoxide L-/D- 50/50 mixture, assignment undetermined)					Min. Inhibitory Concentration E. Coli [1, 8]: 10 µg/mL; Min. Inhibitory Concentration P. Aeruginosa [2, 8]: 5 µg/mL; Min. Inhibitory Concentration S. epidemidia ([3]; 20 hours): 5 µg/mL
4 (SEQ ID NO: 8) 60/40: residue 4 methionine sulfoxide analogue, fraction by proportion of L-methionine-L-/D-sulfoxide (assignment undetermined) (LKL[Met(O)]KKLLKKLKKLLKKL; also: sulfoxide L-/D- 60/40 mixture, assignment undetermined)					Min. Inhibitory Concentration E. Coli [1, 8]: > 10 µg/mL; Min. Inhibitory Concentration P. Aeruginosa [2, 8]: 5 µg/mL; Min. Inhibitory Concentration S. epidemidia ([3]; 20 hours): 5 µg/mL
7 (SEQ ID NO: 11) 20/80: residue 7 methionine sulfoxide analogue, fraction by proportion of L-methionine-L-/D-sulfoxide (assignment undetermined) (LKLLKK[Met(O)]LKKLKKLLKKL; also: sulfoxide L-/D- 20/80 mixture, assignment undetermined)					Min. Inhibitory Concentration E. Coli [1, 8]: 5 µg/mL; Min. Inhibitory Concentration P. Aeruginosa [2, 8]: > 5 µg/mL; Min. Inhibitory Concentration S. epidemidia ([3]; 20 hours): > 10 µg/mL
7 (SEQ ID NO: 11) 70/30: residue 7 methionine sulfoxide analogue, fraction by proportion of L-methionine-L-/D-sulfoxide (assignment undetermined) (LKLLKK[Met(O)]LKKLKKLLKKL; also: sulfoxide L-/D- 70/30 mixture, assignment undetermined)					Min. Inhibitory Concentration E. Coli [1, 8]: 10 µg/mL; Min. Inhibitory Concentration P. Aeruginosa [2, 8]: > 5 µg/mL; Min. Inhibitory Concentration S. epidemidia ([3]; 20 hours): > 10 µg/mL
11 (SEQ ID NO: 15) 20/80: residue 11 methionine sulfoxide analogue, fraction by proportion of L-methionine-L-/D-sulfoxide (assignment undetermined) (LKLLKKLLKK[Met(O)]KKLLKKL; also: sulfoxide L-/D- 20/80 mixture, assignment undetermined)					Min. Inhibitory Concentration E. Coli [1, 8]: 10 µg/mL; Min. Inhibitory Concentration P. Aeruginosa [2, 8]: 5 µg/mL; Min. Inhibitory Concentration S. epidemidia ([3]; 20 hours): 2.5 µg/mL
11 (SEQ ID NO: 15) 70/30: residue 11 methionine sulfoxide analogue, fraction by proportion of L-methionine-L-/D-sulfoxide (assignment undetermined) (LKLLKKLLKK[Met(O)]KKLLKKL; also: sulfoxide L-/D- 70/30 mixture, assignment undetermined)					Min. Inhibitory Concentration E. Coli [1, 8]: 10 µg/mL; Min. Inhibitory Concentration P. Aeruginosa [2, 8]: 2.5 µg/mL; Min. Inhibitory Concentration S. epidemidia ([3]; 20 hours): 2 µg/mL
Ac-KKLLKKLLKKLKKLLKKL-NH2 [1 (SEQ ID NO: 23)]					Min. Inhibitory Concentration E. Coli [1, 9]: 5 µg/mL; Min. Inhibitory Concentration P. Aeruginosa [2, 9]: 30 µg/mL; Min. Inhibitory Concentration S. epidermidis [3, 9]: 25 µg/mL
Ac-KLLKKLLKKLKKLLKKL-NH2 [1 (X(SEQ ID NO: 46) --NH2)]	16	32	4	16 to 32	
Ac-LKKLKKLLKKLKKLLKKL-NH2 [3 (SEQ ID NO: 24)]					Min. Inhibitory Concentration E. Coli [1, 9]: 5 µg/mL; Min. Inhibitory Concentration P. Aeruginosa [2, 9]: 30 µg/mL; Min. Inhibitory Concentration S. epidermidis [3, 9]: 10 µg/mL
Ac-LKLKKKLLKKLKKLLKKL-NH2 [4 (SEQ ID NO: 25)]					Min. Inhibitory Concentration E. Coli [1, 9]: 2.5 µg/mL; Min. Inhibitory Concentration P. Aeruginosa [2, 9]: 30 µg/mL; Min. Inhibitory Concentration S. epidermidis [3, 9]: 5 µg/mL
Ac-LKLKKKLLKKMKKLLKKL-NH2 [Analogue 8]					Min. Inhibitory Concentration E. Coli [1, 10]: 5 µg/mL; Min. Inhibitory Concentration P. Aeruginosa [2, 10]: 5 µg/mL; Min. Inhibitory Concentration S. epidermidis [3, 10]: 5 µg/mL
Ac-LKLKKLLKKLKKLLKKL-NH2 [3 (X(SEQ ID NO: 48) --NH2)]	4	32 to 64	4	8	
Ac-LKLLKKLKKLKKLLKKL-NH2 [7 (X(SEQ ID NO: 50) --NH2)]	4	64	2	4 to 8	
Ac-LKLLKKLLKKKKLLKKL-NH2 [11 (X(SEQ ID NO: 52) --NH2)]	64	256	2	8	
Ac-LKLLKKLLKKLKKLKKL-NH2 [14 (X(SEQ ID NO: 54) --NH2)]	8	32	2	8	
Ac-LKLLKKLLKKLKKLLKK-NH2 [18 (X(SEQ ID NO: 56) --NH2)]	16	32	2	8	
Ac-LKLLKKLLKKLKKLLKL-NH2 [16 (X(SEQ ID NO: 55) --NH2)]	8	32	4	16	
Ac-LKLLKKLLKKLKLLKKL-NH2 [12 (X(SEQ ID NO: 53) --NH2)]	8	32	4	8	
Ac-LKLLKKLLKLKKLLKKL-NH2 [9 (X(SEQ ID NO: 51) --NH2)]	8	64	4	16	
Ac-LKLLKLLKKLKKLLKKL-NH2 [5 (X(SEQ ID NO: 49) --NH2)]	8	64 to 128	2	32	
Ac-LLKLLKKLLKKLKK [Peptide I]					Minimum Inhibitory Concentration against E.coli ([1]; 20 h): 10 µg/mL; Minimum Inhibitory Concentration against P.aeruginosa ([2]; 20 h): 5 µg/mL
Ac-LLLKKLLKKLKKLLKKL-NH2 [2 (X(SEQ ID NO: 47) --NH2)]	8 to 16	32 to 64	4	16 to 32	
